Results from patent publication US20180161314A1, “Methods for Treating Hyperuricemia and Related Diseases” (Ardea Biosciences, Inc., priority 2010, published 2018).
Where “and” joins values, the source holds several entries; their conditions need not be identical. Equal entries are not always repeated.

Experiments:
[1] = system: hyperuricemic subjects with symptomatic gout; assay: Pilot study of drug 1 versus placebo and open-label allopurinol in hyperuricemic subjects with symptomatic gout (Examples 1, 2, 20); type: in vivo, human
Protocol: Study Objectives • To compare the proportion of subjects whose sUA level is <6.0 mg/dL following 2 weeks of continuous treatment with drug 1 compared to allopurinol and placebo. • To evaluate the percent reduction from baseline in sUA levels following 2 weeks of continuous treatment with drug 1 in combination with allopurinol. • To evaluate the proportion of subjects whose sUA levels are <6.0 mg/dL, <5.0 mg/dL and <4.0 mg/dL at each visit. • To evaluate the absolute and percent reduction from baseline in sUA levels at each visit. • To evaluate the maximum percent reduction in sUA levels from baseline during the entire treatment period. • To evaluate percent change in 24-hour urine uric acid level from baseline to Day 15. • To evaluate the safety and tolerability of drug 1 in subjects with gout. • To evaluate the pharmacokinetics, safety and tolerability of drug 1 in combination with allopurinol in subjects with gout.
A randomized, double-blind, placebo-controlled, dose titration, safety and pharmacodynamics pilot study, in approximately 26 hyperuricemic subjects with symptomatic gout enrolled at 2-3 investigational sites in N America, of: • drug 1 versus placebo and open-label allopurinol (Cohort 1); and • drug 1 in combination with allopurinol versus continued allopurinol alone (Cohort 2)
Subjects are randomized 7 days prior to Day 1 in a double-blind fashion to receive drug 1, drug 1 matching placebo, or open-label allopurinol (Cohort 1) or drug 1 or drug 1 matching placebo in combination with allopurinol (Cohort 2).
To reduce the incidence of gout flares, colchicine 0.6 mg qd is administered to all subjects starting 14 days prior to the Baseline (Day 1) visit. Subjects continue colchicine administration throughout the Treatment Period, discontinuing at the End of Study visit (one week after the last dose of study medication).
Cohort 1 approx 20 subjects randomized in 2:1:1 ratio treatment groups—drug 1:placebo:allopurinol.
Subjects randomized to double-blind treatment: • approx 10 subjects randomized to receive drug 1 200 mg qd (4 drug 1 50 mg capsules/day) for one week, followed by drug 1 400 mg qd (8 drug 1 50 mg capsules/day) for one week. • 5 subjects randomized to receive drug 1 matching placebo qd for 2 weeks (week 1-4 drug 1 matching placebo capsules; week 2-8 drug 1 matching placebo capsules)
Subjects randomized to open-label treatment: • 5 subjects randomized to receive allopurinol 300 mg tablets qd for 2 weeks Cohort 2 approx 6 subjects randomized in 5:1 ratio treatment groups—drug+allopurinol:placebo+allopurinol
For Cohorts 1 and 2, subjects randomized to double-blind treatment take drug 1 or drug 1 matching placebo every 24 hours (±1 h) (morning dose) for a period of 2 weeks. For Cohort 1, subjects randomized to open-label treatment take allopurinol every 24 hours (±1 h) (morning dose) for a period of 2 weeks.
Subjects are requested to then drink approximately 240 mL of water 1-2 hours after dosing.
1. Male or post-menopausal or surgically sterile female. 2. 18-75 years of age. 3. Hyperuricemic, defined as: Cohort 1: Screening serum uric acid is ≥8 mg/dL Cohort 2: Screening serum uric acid is ≥10 mg/dL 4. Subject meets one or more of the 1977 American Rheumatism Association (ARA) criteria for the diagnosis of acute arthritis of primary gout. 5. Subject is willing and able to give informed consent and adhere to visit/protocol schedules.
Blood samples (4.5 mL) are collected and sUA levels determined at Screening (repeated as necessary prior to Day 1), Baseline (Day 1) (1 hour and 8 hours post-dose), Day 8 (trough, 1 hour and 8 hours post-dose), Day 9 (24 hours after Day 8 dose), and Day 14 (trough and 8 hours post-dose), Day 15 and End of Study. An additional sUA level is obtained on Day 7 for Cohort 2 subjects prior to the first dose of allopurinol.
Primary pharmacodynamics parameter is the proportion of subjects with serum uric acid <6.0 mg/dL following 2 weeks of treatment. […]

URAT1 = target: T1, URAT1 (Homo sapiens, UniProt Q96S37); conditions: in vitro; cited from earlier work
T1 sequence (Q96S37 1-553): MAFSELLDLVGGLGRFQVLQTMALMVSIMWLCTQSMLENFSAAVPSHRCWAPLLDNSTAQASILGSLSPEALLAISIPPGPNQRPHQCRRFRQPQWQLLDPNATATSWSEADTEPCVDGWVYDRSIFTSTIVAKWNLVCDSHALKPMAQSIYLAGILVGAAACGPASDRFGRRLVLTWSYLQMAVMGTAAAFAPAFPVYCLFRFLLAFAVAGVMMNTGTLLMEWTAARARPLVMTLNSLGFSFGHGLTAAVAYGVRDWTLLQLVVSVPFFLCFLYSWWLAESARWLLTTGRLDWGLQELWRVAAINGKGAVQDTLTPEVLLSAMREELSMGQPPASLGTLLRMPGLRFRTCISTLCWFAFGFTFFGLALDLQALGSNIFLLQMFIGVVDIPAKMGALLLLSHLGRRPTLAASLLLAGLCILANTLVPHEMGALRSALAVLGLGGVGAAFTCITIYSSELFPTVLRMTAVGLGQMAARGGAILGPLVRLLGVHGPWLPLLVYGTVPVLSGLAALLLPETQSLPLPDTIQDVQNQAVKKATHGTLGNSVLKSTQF

[2] = in clinical studies; cited from earlier work
[3] = Cohort 1, preliminary safety summary

O=C(O)CSc1nnc(Br)n1-c1ccc(C2CC2)c2ccccc12 [Drug 1, Sodium 2-(5-bromo-4-(4-cyclopropylnaphthalen-1-yl)-4H-1,2,4-triazol-3-ylthio)acetate]
ECG findings including interval measurements [1, 3]: No clinically significant ECG findings
Tolerability (SAEs, deaths, discontinuations due to adverse events) [1, 3]: well tolerated in this study, with no SAEs, deaths or discontinuations due to adverse events
Responders Day 14 (those with sUA <6 mg/dL) ([1]; Cohort 1, Day 14, responders/subjects, drug 1 200 mg qd 1 week then 400 mg qd 1 week, allopurinol 300 mg qd 2 weeks): 6/10^2
sUA at Day 14 of individual patients not below 6 mg/dL ([1]; Day 14, two non-responders without baseline sUA above 11 mg/dL): 6.2 mg/dL and 6.3 mg/dL
Reduction in serum urate levels, on average ([1]; after the first week of treatment (200 mg qd)): 40%
Reduction in sUA, patient with the lowest baseline CrCl ([1]; baseline CrCl 53 ml/min): 40%
Reduction in sUA, all patients with renal impairment ([1]; by the end of week 2, mild to moderate diminished renal function): ≥ 30%
Plasma levels in gout patients ([1]; compared with Phase 1 healthy volunteer studies): generally consistent with those observed in Phase 1 healthy volunteer studies
Linear trend of sUA reduction versus creatinine clearance ([1]; day 14, 400 mg qd, Cockcroft-Gault and MDRD methods): increasing benefit with lower CrCL
Increase in serum creatinine (SCr), Grade 1 AE ([1]; two patients while on 400 mg QD, SCr fell back to normal limits after study): > 30%
Effect on the URAT1-mediated uptake of uric acid (URAT1): concentration-dependent inhibitory effect
Route of excretion [2]: preferentially excreted through the kidney, reaching high concentrations in urine
